Reference: patent publication US8372823B2, “Tetracyclic inhibitors of fatty acid amide hydrolase” (The Scripps Research Institute, priority 2007, dated 2013)

Tests used:
[1] = target: T1, purified recombinant rat FAAH (Rattus norvegicus, UniProt P97612); test: FAAH enzyme assay, Ki (Dixon plot), rat FAAH; format: biochemical
T1 construct: made in house; host or cells: E. coli
T1 sequence (P97612 1-579): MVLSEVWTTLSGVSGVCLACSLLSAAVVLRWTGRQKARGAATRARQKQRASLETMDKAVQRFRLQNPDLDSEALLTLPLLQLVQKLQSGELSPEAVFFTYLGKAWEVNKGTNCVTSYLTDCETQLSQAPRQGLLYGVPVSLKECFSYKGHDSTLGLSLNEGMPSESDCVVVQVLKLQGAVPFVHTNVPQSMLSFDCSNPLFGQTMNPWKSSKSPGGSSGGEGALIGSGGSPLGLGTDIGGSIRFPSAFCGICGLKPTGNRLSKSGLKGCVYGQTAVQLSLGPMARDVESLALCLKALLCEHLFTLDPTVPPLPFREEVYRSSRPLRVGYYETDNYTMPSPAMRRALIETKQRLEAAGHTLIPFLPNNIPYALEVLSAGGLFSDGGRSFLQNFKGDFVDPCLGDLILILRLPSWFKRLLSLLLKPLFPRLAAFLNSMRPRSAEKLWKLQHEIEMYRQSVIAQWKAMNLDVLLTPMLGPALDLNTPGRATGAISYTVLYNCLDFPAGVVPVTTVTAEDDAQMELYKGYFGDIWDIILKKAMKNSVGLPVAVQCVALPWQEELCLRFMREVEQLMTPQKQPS

[2] = target: T2, FAAH (Homo sapiens, UniProt O00519); test: FAAH enzyme assay, Ki (Dixon plot), human FAAH; format: biochemical; parameters: expressed in transfected cells; host or cells: COS-7 (transient transfection), solubilized membrane extracts; details: solubilized COS-7 membrane extracts, human FAAH cDNA; 14C-oleamide hydrolysis; pH 9.0; 20-23° C.
T2 sequence (O00519 1-579): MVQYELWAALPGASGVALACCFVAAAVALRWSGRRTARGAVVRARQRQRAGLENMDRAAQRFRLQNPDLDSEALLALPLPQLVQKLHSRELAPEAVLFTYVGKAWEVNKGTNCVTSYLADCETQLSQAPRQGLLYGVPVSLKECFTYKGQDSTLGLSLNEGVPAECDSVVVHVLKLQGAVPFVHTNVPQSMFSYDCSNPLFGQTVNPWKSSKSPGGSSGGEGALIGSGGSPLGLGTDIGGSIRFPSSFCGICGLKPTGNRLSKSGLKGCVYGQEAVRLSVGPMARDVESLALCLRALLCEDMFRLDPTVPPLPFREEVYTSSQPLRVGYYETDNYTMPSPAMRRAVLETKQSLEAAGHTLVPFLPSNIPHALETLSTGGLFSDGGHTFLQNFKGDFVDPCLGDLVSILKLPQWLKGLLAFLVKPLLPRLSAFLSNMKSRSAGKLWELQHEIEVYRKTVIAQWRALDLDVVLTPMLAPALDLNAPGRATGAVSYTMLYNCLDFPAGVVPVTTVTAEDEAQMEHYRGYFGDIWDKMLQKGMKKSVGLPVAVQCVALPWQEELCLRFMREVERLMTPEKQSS

[3] = rats; cited from earlier work
[4] = rats; cited from earlier work; remark: listed apart in the source
[5] = target: T2, FAAH; test: FAAH inhibition IC50, human; format: biochemical; parameters: expressed in transfected cells; host or cells: COS-7 (transient transfection), solubilized membrane extracts; details: inhibition at 3-5 test compound concentrations
Method: (§1) Enzyme assays were performed at 20-23° C. with purified recombinant rat FAAH expressed in E. coli (Patricelli, M. P.; Lashuel, H. A.; et al. Biochemistry 1998, 37, 15177-15187) (unless indicated otherwise) or with solubilized COS-7 membrane extracts from cells transiently transfected with human FAAH cDNA (Giang, D. K.; Cravatt, B. F. Proc. Natl. Acad. Sci. U.S.A. 1997, 94, 2238-2242) (where specifically indicated) in a buffer of 125 mM Tris/1 mM EDTA/0.2% glycerol/0.02% Triton X-100/0.4 mM Hepes, pH 9.0 buffer (Patricelli, M. P.; Patterson, J. P.; et al. Bioorg. Med. Chem. Lett. 1998, 8, 613-618). […] NT=no data available.
(§2) IC50 values were determined from the inhibition observed at 3-5 different test compound concentrations (from three or more trials at each concentration) using the formula IC50=[I]/[K0/Ki)-1], where K0 is the control reaction rate without inhibitor and Ki is the rate with test compound at concentration [I] (Conde-Frieboes, K. et al. J. Am. Chem. Soc. 1996, 118, 5519-5525). NT=no data available.

[6] = target: T3, rat FAAH (Rattus norvegicus, UniProt P97612); test: FAAH inhibition IC50, rat; format: biochemical; details: inhibition at 3-5 test compound concentrations
T3 construct: made in house; host or cells: E. coli
T3 sequence (P97612 1-579): T1 sequence (P97612 1-579)
Method: as §1, §2

[7] = target: T2, FAAH; details: cited from earlier work
[8] = rat; cited from earlier work
[9] = rats; cited from earlier work; remark: listed apart in the source
[10] = CREAE mice, model of multiple sclerosis; cited from earlier work
[11] = rat; cited from earlier work; remark: listed apart in the source
[12] = rats; cited from earlier work; remark: listed apart in the source
[13] = purified recombinant rat FAAH expressed in E. coli, 14C-oleamide hydrolysis, pH 9.0, 20-23° C.

## O=C(CCc1ccc(OCc2ccccc2)cc1)c1ncc(-c2ccccn2)o1 [Example 11a, 1-Oxo-1-[5-(2-pyridyl)oxazol-2-yl]-3-(4-(benzyloxy)phenyl)propane]
other
  melting point: 99 to 100 °C
[1]; [13]
  Ki: 1.3 nM
[2]
  Ki: 0.45 nM

## O=C(CCc1ccc(COc2ccccc2)cc1)c1ncc(-c2ccccn2)o1 [Example 11e, 3-(4-(Phenoxymethyl)phenyl)-1-(5-(pyridin-2-yl)oxazol-2-yl)propan-1-one]
[1]; [13]
  Ki: 1 nM
[2]
  Ki: 5 nM

## O=C(CCc1ccc(OCc2ccccc2)cc1)c1nc2ncccc2o1 [Example 11k, 3-(4-(Benzyloxy)phenyl)-1-(oxazolo[4,5-b]pyridin-2-yl)propan-1-one]
[1]; [13]
  Ki: 0.38 nM
[2]
  Ki: 0.6 nM

## Cc1nc(-c2ccccc2)c(-c2ccccc2)n1CCCCCCNC(=O)Oc1ccccc1F [BMS-1]
[3]
  analgesic effect in Chung spinal nerve ligation model: analgesic effect
[4]
  analgesic effect in Hargraves test of acute thermal nociception: analgesic effect

## O=C(CCc1ccc(-c2ccccc2)cc1)c1ncc(-c2ccncc2)o1 [Example 30, 3-Biphenyl-4-yl-1-(5-pyridin-4-yl-oxazol-2-yl)-propan-1-one]
[1]; [13]
  Ki: 2.3 nM
[5]
  IC50: 16 nM
[6]
  IC50: 3 nM

## COC(=O)c1ccc(-c2cnc(C(=O)CCc3ccc(Oc4ccccc4)cc3)o2)nc1 [Example 13, 6-{2-[3-(4-Phenoxy-phenyl)-propionyl]-oxazol-5-yl}-nicotinic acid methyl ester]
[1]; [13]
  Ki: 54 nM
[5]
  IC50: 3 nM
[6]
  IC50: 6 nM

## O=C(O)c1cccc(-c2cnc(C(=O)CCc3ccc(Oc4ccccc4)cc3)o2)n1 [Example 14, 6-{2-[3-(4-Phenoxy-phenyl)-propionyl]-oxazol-5-yl}-pyridine-2-carboxylic acid]
[1]; [13]
  Ki: 65 nM
[5]
  IC50: 2.7 nM
[6]
  IC50: 1.5 nM

## COC(=O)c1cccc(-c2cnc(C(=O)CCc3ccc(Oc4ccccc4)cc3)o2)n1 [Example 12, 6-{2-[3-(4-Phenoxy-phenyl)-propionyl]-oxazol-5-yl}-pyridine-2-carboxylic acid methyl ester]
[1]; [13]
  Ki: 13 nM
[5]
  IC50: 2 nM
[6]
  IC50: 5 nM

## NC(=O)c1cccc(-c2cnc(C(=O)CCc3ccc(-c4ccccc4)cc3)o2)n1 [Example 26, 6-[2-(3-Biphenyl-4-yl-propionyl)-oxazol-5-yl]-pyridine-2-carboxylic acid amide]
[1]; [13]
  Ki: 1.2 nM
[5]
  IC50: 2 nM
[6]
  IC50: 0.5 nM

## COC(=O)c1cc(-c2cnc(C(=O)CCc3ccc(-c4ccccc4)cc3)o2)ccn1 [Example 28, 4-[2-(3-Biphenyl-4-yl-propionyl)-oxazol-5-yl]-pyridine-2-carboxylic acid methyl ester]
[1]; [13]
  Ki: 1.6 nM
[5]
  IC50: 29 nM
[6]
  IC50: 1.5 nM

## O=C(CCCCCCc1ccccc1)c1ncc(-c2ccccn2)o1 [OL-135]
[7]
  inhibition of FAAH: potent inhibitor
[8]
  analgesic activity in hot plate test: analgesic activity
[9]
  analgesic activity in tail emersion test: analgesic activity

## COC(=O)c1ccc(-c2cnc(C(=O)CCc3ccc(-c4ccccc4)cc3)o2)nc1 [Example 23, 6-[2-(3-Biphenyl-4-yl-propionyl)-oxazol-5-yl]-nicotinic acid methyl ester]
[1]; [13]
  Ki: 2.2 nM
[5]
  IC50: 5 nM
[6]
  IC50: 8 nM

## CCOC(=O)c1cccc(-c2cnc(C(=O)CCc3ccc(-c4ccccc4)cc3)o2)n1 [Example 22, 6-[2-(3-Biphenyl-4-yl-propionyl)-oxazol-5-yl]-pyridine-2-carboxylic acid ethyl ester]
[1]; [13]
  Ki: 3 nM
[5]
  IC50: 2 nM
[6]
  IC50: 2 nM

## COC(=O)c1cccc(-c2cnc(C(=O)CCc3ccc(-c4ccccc4)cc3)o2)n1 [Example 21, 6-[2-(3-Biphenyl-4-yl-propionyl)-oxazol-5-yl]-pyridine-2-carboxylic acid methyl ester]
[1]; [13]
  Ki: 1.2 nM
[5]
  IC50: 3 nM
[6]
  IC50: 0.5 nM
[2]
  Ki: 1.2 nM

## O=C(O)c1ccc(-c2cnc(C(=O)CCc3ccc(-c4ccccc4)cc3)o2)nc1 [Example 25, 6-[2-(3-Biphenyl-4-yl-propionyl)-oxazol-5-yl]-nicotinic acid]
[1]; pH 9
  Ki: 14 nM
[5]
  IC50: 0.5 nM
[6]
  IC50: 0.3 nM

## CCCCCCCCCCCCCCCCS(=O)(=O)F [AM374]
[10]
  reduction of spasticity: significantly reduce spasticity

## O=C(O)c1cc(-c2cnc(C(=O)CCc3ccc(-c4ccccc4)cc3)o2)ccn1 [Example 29, 4-[2-(3-Biphenyl-4-yl-propionyl)-oxazol-5-yl]-pyridine-2-carboxylic acid]
[1]; [13]
  Ki: 50 nM
[5]
  IC50: 7 nM
[6]
  IC50: 3 nM

## NC(=O)c1cccc(-c2cccc(OC(=O)NC3CCCCC3)c2)c1 [URB-597]
[8]
  analgesic activity in hot plate test: analgesic efficacy
[11]
  analgesic efficacy in formalin test: analgesic efficacy
[12]
  efficacy in zero plus maze model of anxiety: efficacy

## NC(=O)c1ccc(-c2cnc(C(=O)CCc3ccc(-c4ccccc4)cc3)o2)nc1 [Example 27, 6-[2-(3-Biphenyl-4-yl-propionyl)-oxazol-5-yl]-nicotinamide]
[1]; [13]
  Ki: 1.5 nM
[5]
  IC50: 0.4 nM
[6]
  IC50: 0.5 nM

## O=C(CCc1ccc(-c2ccccc2)cc1)c1ncc(-c2cccc(-c3nnn[nH]3)n2)o1 [Example 46, 3-Biphenyl-4-yl-1-{5-[6-(1H-tetrazol-5-yl)-pyridin-2-yl]-oxazol-2-yl}-propan-1-one]
[1]; [13]
  Ki: 27 nM
[5]
  IC50: 83 nM
[6]
  IC50: 9 nM

## N#Cc1cccc(-c2cnc(C(=O)CCc3ccc(-c4ccccc4)cc3)o2)n1 [Example 20, 6-[2-(3-Biphenyl-4-yl-propionyl)-oxazol-5-yl]-pyridine-2-carbonitrile]
[1]; [13]
  Ki: 3 nM
[5]
  IC50: 11 nM
[6]
  IC50: 2 nM

## COC(=O)c1cccc(-c2cnc(C(=O)CCc3ccc(COc4ccccc4)cc3)o2)n1 [Example 16, 6-{2-[3-(4-Phenoxymethyl-phenyl)-propionyl]-oxazol-5-yl}-pyridine-2-carboxylic acid methyl ester]
[1]; [13]
  Ki: 2 nM
[5]
  IC50: 1.2 nM
[6]
  IC50: 1 nM

## O=C(O)c1cccc(-c2cnc(C(=O)CCc3ccc(COc4ccccc4)cc3)o2)n1 [Example 18, 6-{2-[3-(4-Phenoxymethyl-phenyl)-propionyl]-oxazol-5-yl}-pyridine-2-carboxylic acid]
[1]; [13]
  Ki: 6.1 nM
[5]
  IC50: 1 nM
[6]
  IC50: 0.5 nM
